In PMC5428509, “Irreversible inhibition of BTK kinase by a novel highly selective inhibitor CHMFL-BTK-11 suppresses inflammatory response in rheumatoid arthritis model” (Scientific Reports, 2017):

Legend:
Assay in all cases: biochemical
Set-up in all cases: KinomeScan competition binding panel (DiscoveRx), percent of control at 1 uM
Conditions in all cases: read-out: Percent Control
[1] = target: SRPK2 (Homo sapiens, UniProt P78362)
In short: (§1)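 Selectivity profiled across 456 kinases/mutants by KinomeScan binding technology.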

[2] = target: CHEK1 (Homo sapiens, UniProt O14757)
CHEK1, sequence (O14757 whole entry): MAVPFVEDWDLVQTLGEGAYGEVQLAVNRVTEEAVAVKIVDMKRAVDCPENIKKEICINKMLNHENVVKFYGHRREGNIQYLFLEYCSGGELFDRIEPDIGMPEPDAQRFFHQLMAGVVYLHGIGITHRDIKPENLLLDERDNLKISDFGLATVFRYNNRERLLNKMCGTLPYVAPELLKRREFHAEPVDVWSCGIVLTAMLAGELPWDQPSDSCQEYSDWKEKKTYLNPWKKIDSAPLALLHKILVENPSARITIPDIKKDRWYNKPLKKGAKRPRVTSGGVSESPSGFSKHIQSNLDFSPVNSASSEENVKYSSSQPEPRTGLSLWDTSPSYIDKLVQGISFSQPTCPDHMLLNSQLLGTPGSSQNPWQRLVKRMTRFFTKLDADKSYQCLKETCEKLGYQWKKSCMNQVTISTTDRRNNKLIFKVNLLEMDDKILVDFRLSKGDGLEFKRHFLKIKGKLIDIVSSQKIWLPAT
In short: as §1

[3] = target: HCK (Homo sapiens, UniProt P08631)
In short: as §1

[4] = target: T1, PYK2 (Homo sapiens, UniProt Q14289)
T1 construct: gene PTK2B
In short: as §1

[5] = target: T2, NDR1 (Homo sapiens, UniProt Q15208)
T2 construct: gene STK38
T2 sequence (Q15208 whole entry): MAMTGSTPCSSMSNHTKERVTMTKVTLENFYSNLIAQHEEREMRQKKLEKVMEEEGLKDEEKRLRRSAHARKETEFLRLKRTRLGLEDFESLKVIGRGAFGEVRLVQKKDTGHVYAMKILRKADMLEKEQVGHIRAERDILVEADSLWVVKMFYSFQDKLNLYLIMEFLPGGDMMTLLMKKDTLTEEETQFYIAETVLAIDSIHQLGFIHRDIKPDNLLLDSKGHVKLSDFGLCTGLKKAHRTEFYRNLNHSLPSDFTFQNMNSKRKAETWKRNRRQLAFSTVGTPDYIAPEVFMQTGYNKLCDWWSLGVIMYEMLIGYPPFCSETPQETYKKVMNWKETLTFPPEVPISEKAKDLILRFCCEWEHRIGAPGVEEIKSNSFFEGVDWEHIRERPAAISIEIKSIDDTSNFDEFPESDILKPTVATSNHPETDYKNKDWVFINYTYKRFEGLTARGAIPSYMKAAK
In short: as §1

[6] = target: PIK3CD (Homo sapiens, UniProt O00329)
In short: as §1

[7] = target: SRPK3 (Homo sapiens, UniProt Q9UPE1)
In short: as §1

[8] = target: T3, PRP4 (Homo sapiens, UniProt Q13523)
T3 construct: gene PRPF4B
In short: as §1

[9] = target: T4, ABL1(F317L)-phosphorylated (Homo sapiens, UniProt P00519, F317L)
T4 construct: phosphorylated
In short: as §1

[10] = target: CSNK1E (Homo sapiens, UniProt P49674)
CSNK1E, sequence (P49674 whole entry): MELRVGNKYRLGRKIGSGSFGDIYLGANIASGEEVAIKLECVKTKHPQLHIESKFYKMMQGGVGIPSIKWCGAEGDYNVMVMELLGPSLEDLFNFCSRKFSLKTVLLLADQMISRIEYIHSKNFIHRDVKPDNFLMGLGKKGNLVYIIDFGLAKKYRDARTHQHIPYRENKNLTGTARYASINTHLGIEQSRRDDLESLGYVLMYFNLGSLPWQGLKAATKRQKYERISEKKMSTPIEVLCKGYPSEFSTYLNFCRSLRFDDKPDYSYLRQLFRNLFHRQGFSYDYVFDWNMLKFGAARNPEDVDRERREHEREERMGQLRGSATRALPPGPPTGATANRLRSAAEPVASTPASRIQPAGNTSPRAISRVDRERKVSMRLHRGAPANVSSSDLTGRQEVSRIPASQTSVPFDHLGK
In short: as §1

[11] = target: LIMK2 (Homo sapiens, UniProt P53671)
In short: as §1

[12] = target: T5, MEK4 (Homo sapiens, UniProt P45985)
T5 construct: gene MAP2K4
In short: as §1

[13] = target: MAP3K3 (Homo sapiens, UniProt Q99759)
In short: as §1

[14] = target: T6, p38-alpha (Homo sapiens, UniProt Q16539)
T6 construct: gene MAPK14
In short: as §1

[15] = target: DAPK3 (Homo sapiens, UniProt O43293)
DAPK3, sequence (O43293 whole entry): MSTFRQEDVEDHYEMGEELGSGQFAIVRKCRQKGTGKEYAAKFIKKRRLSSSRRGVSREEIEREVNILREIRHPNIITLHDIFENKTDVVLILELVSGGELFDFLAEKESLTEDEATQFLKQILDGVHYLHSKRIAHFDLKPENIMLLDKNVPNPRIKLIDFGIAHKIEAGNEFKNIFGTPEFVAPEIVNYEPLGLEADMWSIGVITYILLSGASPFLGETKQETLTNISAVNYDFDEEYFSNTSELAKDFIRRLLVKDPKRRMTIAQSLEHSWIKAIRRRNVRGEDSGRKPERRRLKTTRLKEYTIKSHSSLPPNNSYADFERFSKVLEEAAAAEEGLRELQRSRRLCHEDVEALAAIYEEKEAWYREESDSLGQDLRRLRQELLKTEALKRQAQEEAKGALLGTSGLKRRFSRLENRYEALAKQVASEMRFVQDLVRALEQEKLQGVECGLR
In short: as §1

[16] = target: TAOK3 (Homo sapiens, UniProt Q9H2K8)
TAOK3, sequence (Q9H2K8 whole entry): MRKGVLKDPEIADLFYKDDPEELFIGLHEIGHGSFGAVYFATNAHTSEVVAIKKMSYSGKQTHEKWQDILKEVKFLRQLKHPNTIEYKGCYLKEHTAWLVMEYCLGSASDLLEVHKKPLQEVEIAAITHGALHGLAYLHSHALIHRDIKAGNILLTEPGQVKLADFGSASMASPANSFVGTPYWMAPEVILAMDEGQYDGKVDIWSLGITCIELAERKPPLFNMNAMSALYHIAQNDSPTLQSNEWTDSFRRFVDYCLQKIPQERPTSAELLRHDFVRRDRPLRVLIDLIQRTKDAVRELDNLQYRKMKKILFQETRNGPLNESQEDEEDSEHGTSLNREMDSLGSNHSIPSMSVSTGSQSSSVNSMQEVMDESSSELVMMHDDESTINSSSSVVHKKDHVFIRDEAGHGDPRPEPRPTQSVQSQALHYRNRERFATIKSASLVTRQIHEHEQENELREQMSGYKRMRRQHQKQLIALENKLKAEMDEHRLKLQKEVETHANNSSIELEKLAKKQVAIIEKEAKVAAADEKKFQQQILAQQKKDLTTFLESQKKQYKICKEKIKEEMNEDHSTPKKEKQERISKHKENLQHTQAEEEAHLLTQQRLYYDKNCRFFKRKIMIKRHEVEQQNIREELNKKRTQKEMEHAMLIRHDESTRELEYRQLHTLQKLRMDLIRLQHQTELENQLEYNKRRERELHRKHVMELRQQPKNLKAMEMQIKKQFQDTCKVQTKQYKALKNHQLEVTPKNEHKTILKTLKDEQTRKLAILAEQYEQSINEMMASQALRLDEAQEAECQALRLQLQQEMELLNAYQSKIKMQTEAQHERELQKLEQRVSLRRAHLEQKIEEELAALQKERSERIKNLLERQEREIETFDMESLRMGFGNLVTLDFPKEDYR
In short: as §1

[17] = target: IRAK4 (Homo sapiens, UniProt Q9NWZ3)
In short: as §1

[18] = target: PAK3 (Homo sapiens, UniProt O75914)
In short: as §1

[19] = target: T7, ABL1(H396P)-nonphosphorylated (Homo sapiens, UniProt P00519, H396P)
T7 construct: nonphosphorylated
In short: as §1

[20] = target: NEK3 (Homo sapiens, UniProt P51956)
In short: as §1

[21] = target: CLK4 (Homo sapiens, UniProt Q9HAZ1)
In short: as §1

[22] = target: T8, RSK2(Kin.Dom.1-N-terminal) (Homo sapiens, UniProt P51812)
T8 construct: gene RPS6KA3; Kin.Dom.1-N-terminal
T8 sequence (P51812 whole entry): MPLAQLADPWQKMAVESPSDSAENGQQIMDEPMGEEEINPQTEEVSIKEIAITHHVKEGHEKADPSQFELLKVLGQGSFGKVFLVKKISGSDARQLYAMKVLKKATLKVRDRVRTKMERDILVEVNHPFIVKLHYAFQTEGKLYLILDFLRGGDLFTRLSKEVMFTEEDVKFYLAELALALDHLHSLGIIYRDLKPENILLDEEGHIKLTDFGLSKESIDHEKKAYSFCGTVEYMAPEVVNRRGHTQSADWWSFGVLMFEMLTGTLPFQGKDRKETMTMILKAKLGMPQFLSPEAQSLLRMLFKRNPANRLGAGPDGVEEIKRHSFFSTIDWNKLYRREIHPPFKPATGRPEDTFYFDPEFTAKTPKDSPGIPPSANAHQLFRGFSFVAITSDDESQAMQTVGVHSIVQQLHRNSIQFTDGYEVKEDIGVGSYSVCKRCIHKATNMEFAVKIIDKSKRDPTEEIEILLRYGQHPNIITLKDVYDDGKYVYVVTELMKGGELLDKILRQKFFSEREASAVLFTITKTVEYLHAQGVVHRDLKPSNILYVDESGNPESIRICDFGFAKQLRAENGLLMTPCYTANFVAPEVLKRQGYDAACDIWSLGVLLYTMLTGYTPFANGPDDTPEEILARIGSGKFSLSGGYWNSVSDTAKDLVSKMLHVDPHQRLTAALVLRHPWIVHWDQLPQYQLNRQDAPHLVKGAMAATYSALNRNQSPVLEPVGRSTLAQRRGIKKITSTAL
In short: as §1

[23] = target: EGFR(S752-I759del) (Homo sapiens, UniProt P00533, DEL752-759)
EGFR(S752-I759del), sequence (P00533 with tags, fused parts or gaps DEL752-759): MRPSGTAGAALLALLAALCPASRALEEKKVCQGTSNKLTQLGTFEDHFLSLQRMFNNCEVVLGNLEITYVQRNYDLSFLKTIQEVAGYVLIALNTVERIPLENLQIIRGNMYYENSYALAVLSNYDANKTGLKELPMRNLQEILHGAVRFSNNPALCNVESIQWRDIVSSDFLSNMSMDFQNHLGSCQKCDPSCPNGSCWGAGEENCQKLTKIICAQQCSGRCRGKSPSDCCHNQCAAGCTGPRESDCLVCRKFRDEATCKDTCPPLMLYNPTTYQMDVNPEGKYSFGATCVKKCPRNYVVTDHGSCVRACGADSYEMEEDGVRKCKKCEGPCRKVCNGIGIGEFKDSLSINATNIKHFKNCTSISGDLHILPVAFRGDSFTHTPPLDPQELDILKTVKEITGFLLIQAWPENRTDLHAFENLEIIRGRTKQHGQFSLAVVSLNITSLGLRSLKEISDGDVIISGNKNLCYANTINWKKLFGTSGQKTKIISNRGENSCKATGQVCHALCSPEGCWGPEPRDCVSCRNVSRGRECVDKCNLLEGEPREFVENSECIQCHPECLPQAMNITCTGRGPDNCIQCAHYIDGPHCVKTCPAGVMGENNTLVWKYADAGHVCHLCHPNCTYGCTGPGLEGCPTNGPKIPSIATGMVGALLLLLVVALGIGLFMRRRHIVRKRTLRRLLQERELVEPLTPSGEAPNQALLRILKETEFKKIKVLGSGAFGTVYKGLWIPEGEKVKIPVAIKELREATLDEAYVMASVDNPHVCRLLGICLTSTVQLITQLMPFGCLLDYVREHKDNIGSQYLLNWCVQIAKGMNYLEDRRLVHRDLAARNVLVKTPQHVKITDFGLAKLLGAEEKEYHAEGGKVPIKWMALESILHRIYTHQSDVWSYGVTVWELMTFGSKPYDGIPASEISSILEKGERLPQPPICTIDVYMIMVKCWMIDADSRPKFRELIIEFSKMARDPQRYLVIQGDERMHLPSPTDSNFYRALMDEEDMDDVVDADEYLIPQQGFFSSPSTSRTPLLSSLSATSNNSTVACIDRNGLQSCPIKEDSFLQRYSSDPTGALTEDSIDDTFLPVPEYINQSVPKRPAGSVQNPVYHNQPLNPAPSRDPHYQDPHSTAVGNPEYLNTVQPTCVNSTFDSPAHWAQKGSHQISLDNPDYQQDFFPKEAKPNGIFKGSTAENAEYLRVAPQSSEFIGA
In short: as §1

[24] = target: MERTK (Homo sapiens, UniProt Q12866)
In short: as §1

[25] = target: T9, ERK2 (Homo sapiens, UniProt P28482)
T9 construct: gene MAPK1
T9 sequence (P28482 whole entry): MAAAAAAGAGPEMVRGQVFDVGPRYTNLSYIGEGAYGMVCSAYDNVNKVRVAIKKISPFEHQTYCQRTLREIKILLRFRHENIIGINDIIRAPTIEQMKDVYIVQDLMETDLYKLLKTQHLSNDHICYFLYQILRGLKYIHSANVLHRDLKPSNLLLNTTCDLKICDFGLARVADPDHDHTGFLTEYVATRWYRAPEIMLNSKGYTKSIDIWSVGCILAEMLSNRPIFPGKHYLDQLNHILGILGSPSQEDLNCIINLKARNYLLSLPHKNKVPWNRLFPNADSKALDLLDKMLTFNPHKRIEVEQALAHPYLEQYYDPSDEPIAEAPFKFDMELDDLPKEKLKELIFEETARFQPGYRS
In short: as §1

Structure (SMILES): C=CC(=O)Nc1cc(-n2c(=O)ccc3cnc4ccc(-n5cccn5)cc4c32)ccc1C [CHMFL-BTK-11]
- remaining binding at 1 µM [1]: 100%
- remaining binding at 1 µM [2]: 100%
- remaining binding at 1 µM [3]: 100%
- remaining binding at 1 µM [4]: 100%
- remaining binding at 1 µM [5]: 68%
- remaining binding at 1 µM [6]: 100%
- remaining binding at 1 µM [7]: 96%
- remaining binding at 1 µM [8]: 93%
- remaining binding at 1 µM [9]: 100%
- remaining binding at 1 µM [10]: 100%
- remaining binding at 1 µM [11]: 100%
- remaining binding at 1 µM [12]: 100%
- remaining binding at 1 µM [13]: 100%
- remaining binding at 1 µM [14]: 76%
- remaining binding at 1 µM [15]: 100%
- remaining binding at 1 µM [16]: 93%
- remaining binding at 1 µM [17]: 82%
- remaining binding at 1 µM [18]: 94%
- remaining binding at 1 µM [19]: 100%
- remaining binding at 1 µM [20]: 87%
- remaining binding at 1 µM [21]: 90%
- remaining binding at 1 µM [22]: 85%
- remaining binding at 1 µM [23]: 58%
- remaining binding at 1 µM [24]: 100%
- remaining binding at 1 µM [25]: 100%
